Source: patent US20040224995A1 (University of North Texas Health Science Center at Fort …, priority 2003, published 2004)

What was measured:
HT-22 cells [1] = test: HT-22 cell viability during H2O2 exposure (calcein AM assay); type: cell-based, mouse; settings: for pre-incubation required to achieve significant neuroprotection from H2O2 toxicity / protection against H2O2: HT-22; for concentrations toxic to HT-22 cells: HT-22, H2O2 experiments; for protection against H2O2: 24 h pretreatment, 30 μM H2O2; for protection when given after the H2O2 insult: post-treatment
Experimental: HT-22 cultures were incubated with different concentrations of the three compounds for 24 hours prior to the insult. […] Peak neuroprotective concentrations for 15d-PGJ2 ranged from […]. […] Additionally, we determined the effects of 15d-PGJ2 and troglitazone on HT-22 cells protection against another type of pro-oxidant insult, hydrogen peroxide H2O2. […] Higher concentrations (>10 μM and >20 μM) of 15 dPGJ2 and troglitazone, respectively, were toxic to HT-22 cells. […] HT-22 cells were pre-treated with 15d-PGJ2 for 24 hours. Thirty micromolar of H2O2 was then administered, and cell viability was determined 24 hours later. The cell viability is expressed as a % survival of the control (non-peroxide treated) cultures. DMSO received the vehicle only for 15d-PGJ2. Shown in FIG. 23 are the mean±SEM for n>6 cultures/group. The asterisk (“*”) indicates p<0.05 versus respective control.
(§1) The WY-14643, Ciglitazone, Troglitazone, 9-cis retinoic acid, and 15d-PGJ2 compounds were purchased from Biomol (Plymouth Meeting, Pa.). L-165041 and L-783483 were kindly provided by Merck Laboratories. The cell lines used were HT-22, an immortalized mouse hippocampal cell line, and SK—N—SH, a human neuroblastoma cell line. The HT-22 cells were obtained from David Schubert (Salk Institute, San Diego, Calif.). The HT-22 line was originally selected from HT-4 cells based on glutamate sensitivity. HT-4 cells were immortalized from primary hippocampal neurons using a temperature-sensitive SV-40 T antigen (Morimoto and Koshland, 1990). SK—N—SH were obtained from ATCC (Manassas, Va.). HT-22 and SK—N—SH cells were grown to confluence in DMEM and RPMI-1640 media, respectively, and supplemented with 10% charcoal/dextran-treated fetal bovine serum (FBS), and 5 mg/ml gentamycin at 37° C. under 95% air, 5% CO2. HT-22 cells were plated at a density of 50,000 cells/ml (5,000 cells/well), and SK—N—SH were plated at a density of 120,000 to 150,000 cells/ml (12,000 to 15,000 cells/well) in 96-well plates. In most studies, wells were pre-treated with PPAR ligands over a wide dose range at various times prior to being subjected to either glutamate, hydrogen peroxide (H2O2), or serum deprivation insults. In some studies, the insults were applied prior to the addition of the PPAR ligand.
(§2) The cell viability assays were conducted about 14 to 24 hours post-insult time, viability of cells was determined using 2.5 μM Calcein AM assay in phosphate-buffered saline (PBS). After 25 minutes of incubation, live cells were distinguished by the presence of intracellular esterase activity, which cleaves the calcein AM dye, producing a bright green fluorescence. Viability was measured in Relative Fluorescent Units (“RFU”), and expressed as percentage of vehicle-treated control values. The calcein assay was designed to produce results that accurately reflect viable cell numbers. At cell concentrations below 10,000 cells per well (96-well plate) a linear relationship between RFU and cell number is achieved (r^2=0.9997, data not shown).

RGC-5 cells = test: RGC-5 glutamate cytotoxicity; type: cell-based; settings: dose dependent manner
Experimental: (§3) The in vitro model used for oxidative cell death was based upon glutamate, hydrogen peroxide, and buthionine sulfoximine (“BSO”) administration to HT-22 mouse hippocampal, C6 rat glioma, and RGC-5 retinal ganglion cell lines. The ease that the above cell lines are cultured is well known in the art of cell culture. Additionally, these cell lines are suitable for screening a various number of compounds described in the present invention.
(§4) Although not wanting to be bound by theory, the toxicity of glutamate in HT-22 (32) and C6 glioma (33) cell lines is mediated through oxidative stress. HT-22 cells lack ionotropic N-methyl-D-aspartate (“NMDA”) glutamate receptors, and the glutamate-induced cell death appears to occur via a slow onset oxidative stress (32,34,35). Glutamate blocks cystine uptake by inhibiting the glutamate/cystine antiporter in both HT-22 (32) and C6 glioma (33) cell lines. […] In some of the experiments, the viability of cells was determined using 2.5 μM calcein AM assay in phosphate-buffered saline (PBS 1×). After 25 minutes of incubation, live cells were distinguished by the presence of intracellular esterase activity, which cleaves the calcein AM dye, producing a bright green fluorescence, as shown in FIG. 22. Viability was measured in Relative Fluorescent Units (“RFU”), and expressed as percentage of vehicle-treated control values. […]

HT-22 cells [2] = test: HT-22 serum deprivation toxicity; type: cell-based, mouse; settings: for protection against serum deprivation: 24 h in 10% FBS with compound, then about 12 h serum free medium; for concentration enhancing serum deprivation-induced toxicity: HT-22
Experimental: The effects of pretreatment of HT-22 cells with PPARγ agonists on serum deprivation toxicity were also studied. We examined whether 15d-PGJ2 or troglitazone have neuroprotective activity against serum deprivation toxicity. HT-22 cells were incubated for 24 hours in 10% FBS medium containing either 15d-PGJ2 or troglitazone. Then, cells were exposed for about 12 hours to a serum free medium with both of the compounds present. […] In addition, 15d-PGJ2 and troglitazone enhanced the serum deprivation-induced toxicity at or above 10 μM and 20 μM, respectively.
as §1, §2

SK—N—SH cells = test: SK-N-SH H2O2 and serum deprivation insults; type: cell-based, human
Experimental: Additionally, the effects of pretreatment with PPARγ agonists on H2O2 and serum deprivation toxicities were studied in SK—N—SH cells. After showing that protection in HT-22 cells was insult-type specific, we investigated whether it was also cell-type specific. We used SK—N—SH, a human neuroblastoma cell lines, and tested whether 15d-PGJ2 and troglitazone would protect SK—N—SH against H2O2 and serum deprivation insults. […] Higher concentrations (>10 μM and >20 μM) of 15dPGJ2 and troglitazone, respectively, were toxic to SK—N—SH cells.
as §1, §2

C6 Glioma cells = test: C6 glioma glutamate cytotoxicity; type: cell-based, rat; settings: dose dependent manner
Experimental: as §3, §4

## CCCCC/C=C/C=C1/C(=O)C=C[C@@H]1C/C=C\CCCC(=O)O [15d-PGJ2, 15-deoxy-Δ^12,14-PGJ2]
HT-22 cells [1]
  pre-incubation required to achieve significant neuroprotection from H2O2 toxicity: 4 h
  concentrations toxic to HT-22 cells: above 10 μM
  protection against H2O2: dose-dependent protection
  protection when given after the H2O2 insult: Neither 15dPGJ2 nor troglitazone protected
RGC-5 cells
  protection against glutamate toxicity: protected
HT-22 cells [2]
  protection against serum deprivation: failed to protect
  concentration enhancing serum deprivation-induced toxicity: ≥ 10 µM
SK—N—SH cells
  concentrations toxic to SK-N-SH cells: > 10 µM
  protection against H2O2 and serum deprivation insults: Neither of the compounds protected
C6 Glioma cells
  protection against glutamate toxicity: protected

## Cc1c(C)c2c(c(C)c1O)CCC(C)(COc1ccc(CC3SC(=O)NC3=O)cc1)O2 (centres unmarked) [troglitazone]
HT-22 cells [1]
  pre-incubation required to achieve significant neuroprotection from H2O2 toxicity: 4 h
  concentrations toxic to HT-22 cells: > 20 µM
  protection against H2O2: dose-dependent protection
  protection when given after the H2O2 insult: Neither 15dPGJ2 nor troglitazone protected
RGC-5 cells
  protection against glutamate toxicity: protected
HT-22 cells [2]
  protection against serum deprivation: failed to protect
  concentration enhancing serum deprivation-induced toxicity: ≥ 20 µM
SK—N—SH cells
  concentrations toxic to SK-N-SH cells: > 20 µM
  protection against H2O2 and serum deprivation insults: Neither of the compounds protected
C6 Glioma cells
  protection against glutamate toxicity: protected
